This is an account of results in article PMC6104608, “Design, synthesis, and evaluation of curcumin analogues as potential inhibitors of bacterial sialidase” (Journal of Enzyme Inhibition and Medicinal Chemistry, 2018).

In data set [1] the target is T1, Vibrio cholerae sialidase (Vibrio cholerae serotype O1, UniProt P0C6E9).
T1 construct: purchased Sigma 72197
The experiment in a line: biochemical.

Data set [2] deals with T2, S. pneumoniae Nan A (Streptococcus pneumoniae, UniProt P62575).
T2 construct: 6x His-tag (C); made in house; host or cells: E. coli BL21 (DE3)
The experiment in a line: Fluorescence-based inhibition assay of S. pneumoniae Nan A with MUNANA substrate. The data set is classed as biochemical. Conditions: for IC50: 2.2 nM Nan A, 50 µM substrate, pH 7.5, triplicate, read-out: IC50 against S. pneumoniae Nan A.

In data set [3] the target is T2, S. pneumoniae Nan A. The experiment in a line: Enzyme kinetic study (inhibition mechanism and Ki) on Nan A. It counts as biochemical. As to conditions: for Inhibition type against Nan A: Lineweaver-Burk and Dixon plots; for Ki: nonlinear regression, SigmaPlot Enzyme Kinetics, read-out: Ki against Nan A.

T2 sequence (P62575 319-822 limits assumed): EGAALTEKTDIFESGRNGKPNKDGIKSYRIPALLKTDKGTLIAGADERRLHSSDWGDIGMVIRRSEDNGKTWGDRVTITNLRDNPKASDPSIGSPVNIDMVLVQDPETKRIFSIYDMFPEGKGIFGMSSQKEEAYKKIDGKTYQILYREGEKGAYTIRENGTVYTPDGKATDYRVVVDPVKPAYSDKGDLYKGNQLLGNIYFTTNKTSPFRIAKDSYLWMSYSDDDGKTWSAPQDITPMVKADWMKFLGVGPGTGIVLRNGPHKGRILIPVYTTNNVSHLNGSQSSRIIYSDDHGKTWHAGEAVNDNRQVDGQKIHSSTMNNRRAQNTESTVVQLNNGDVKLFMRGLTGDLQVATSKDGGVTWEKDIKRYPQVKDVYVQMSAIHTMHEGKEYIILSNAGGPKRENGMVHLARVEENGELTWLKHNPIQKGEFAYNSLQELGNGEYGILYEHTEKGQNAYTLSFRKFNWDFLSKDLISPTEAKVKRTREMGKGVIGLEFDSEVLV
T1 sequence (P0C6E9 25-781): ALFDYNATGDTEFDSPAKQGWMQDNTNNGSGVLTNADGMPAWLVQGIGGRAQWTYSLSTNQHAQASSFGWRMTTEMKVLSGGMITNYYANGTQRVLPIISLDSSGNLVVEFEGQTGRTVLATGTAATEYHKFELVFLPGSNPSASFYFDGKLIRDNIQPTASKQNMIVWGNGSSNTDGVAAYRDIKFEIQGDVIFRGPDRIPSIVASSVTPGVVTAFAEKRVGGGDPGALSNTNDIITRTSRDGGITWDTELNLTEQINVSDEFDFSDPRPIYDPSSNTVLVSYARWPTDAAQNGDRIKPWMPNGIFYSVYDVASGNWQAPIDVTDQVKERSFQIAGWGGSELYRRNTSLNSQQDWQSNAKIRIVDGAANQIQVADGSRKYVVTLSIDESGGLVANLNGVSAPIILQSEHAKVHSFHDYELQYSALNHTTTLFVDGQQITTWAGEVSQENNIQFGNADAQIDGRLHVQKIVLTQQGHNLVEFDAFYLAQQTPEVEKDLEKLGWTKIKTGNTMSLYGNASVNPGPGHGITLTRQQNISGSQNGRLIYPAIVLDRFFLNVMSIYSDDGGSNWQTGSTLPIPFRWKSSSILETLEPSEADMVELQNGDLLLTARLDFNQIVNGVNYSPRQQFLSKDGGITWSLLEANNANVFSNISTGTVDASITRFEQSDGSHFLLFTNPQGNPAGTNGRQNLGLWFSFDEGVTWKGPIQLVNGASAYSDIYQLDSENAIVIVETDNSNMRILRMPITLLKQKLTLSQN

As a reminder, the IC50 is the midpoint of a concentration-inhibition curve. For the molecule `COc1cc(C=Cc2cc(C=Cc3ccc(O)c(OC)c3)[nH]n2)ccc1O` [Compound 8], the IC50 in data set [1] is 41600 ± 18700 nM; on S. pneumoniae Nan A [2], 6200 ± 1500 nM.

On to `COc1cc(/C=C/C(=O)/C=C(O)/C=C/c2ccc(O)c(O)c2)ccc1O` [Compound 5d, 1-(3,4-Dihydroxyphenyl)-5-hydroxy-7-(4-hydroxy-3-methoxyphenyl)hepta-1,4,6-trien-3-one], for which the IC50 is 2700 ± 800 nM in data set [1] and 700 ± 200 nM at S. pneumoniae Nan A [2].

A word on the melting point: it is the temperature of the solid-liquid transition. In turn, `COc1cc(C=CC(O)=C2CCCC(=Cc3ccc(O)c(OC)c3)C2=O)ccc1O` [Compound 4f, 2–(1-Hydroxy-3-(4-hydroxy-3-methoxyphenyl)allylidene)-6-(4-hydroxy-3-methoxybenzylidene)cyclohexan-1-one] showed a melting point of 182 to 183 °C. In data set [1], this molecule came in with an IC50 of 24900 ± 1800 nM. Also, the IC50 at S. pneumoniae Nan A [2] is 4700 ± 500 nM.

As to `COC(=O)CCCOc1ccc(C=CC(=O)C=C(O)C=Cc2ccc(O)c(OC)c2)cc1OC` [Compound 5i, Methyl 4-(4-(5-hydroxy-7–(4-hydroxy-3-methoxyphenyl)-3-oxohepta-1,4,6-trien-1-yl)-2-methoxyphenoxy)-butanoate], the melting point was 100 to 101 °C. Moreover, the IC50 in data set [1] was 9500 ± 1500 nM. In addition, on S. pneumoniae Nan A [2], the IC50 turned out to be 1000 ± 500 nM.

As to `COc1cc(CCC(=O)/C=C(\O)CCc2ccc(O)c(OC)c2)ccc1O` [Compound 6, 1,7-Bis(4-hydroxy-3-methoxyphenyl)heptane-3,5-dione], the IC50 on S. pneumoniae Nan A [2] stood at 82100 ± 7600 nM.

With `COc1cc(/C=C/C(=O)/C=C(O)/C=C/c2ccc(Br)cc2)ccc1O` [Compound 5m, 1-(4-Bromophenyl)-5-hydroxy-7-(4-hydroxy-3-methoxyphenyl)hepta-1,4,6-trien-3-one], the melting point was 148 to 149 °C. Moreover, the IC50 at S. pneumoniae Nan A [2] was determined as 1000 ± 200 nM.

As to `O=C(C=Cc1ccc(O)c(O)c1)C=C(O)C=Cc1ccc(O)c(O)c1` [Compound 4d, 1,7-bis(3,4-dihydroxyphenyl)-5-hydroxyhepta-1,4,6-trien-3-one], the melting point is 300 °C (dec.). Moreover, in data set [1], half-maximal inhibition (IC50) required 11900 ± 2000 nM. Also, the IC50 on S. pneumoniae Nan A [2] is 1500 ± 700 nM.

With `COc1ccc(/C=C/C(O)=C/C(=O)/C=C/c2ccc(O)c(OC)c2)cc1` [Compound 5o, 5-Hydroxy-7-(4-hydroxy-3-methoxyphenyl)-1-(4-methoxyphenyl)hepta-1,4,6-trien-3-one], the melting point lay within 143 to 145 °C. Moreover, in data set [1], the IC50 was 4200 ± 800 nM. At S. pneumoniae Nan A [2], the IC50 was found to be 1200 ± 100 nM.

Regarding `COc1cc(/C=C/C(=O)/C=C(O)/C=C/c2ccc(N3CCCCC3)cc2)ccc1O` [Compound 5s, 5-Hydroxy-7-(4-hydroxy-3-methoxyphenyl)-1-(4-(piperidin-1-yl)phenyl)hepta-1,4,6-trien-3-one], the melting point fell in the range of 204 to 205 °C. The IC50 at S. pneumoniae Nan A [2] is 1500 ± 100 nM.

For the molecule `COc1cc(/C=C/C(=O)/C=C(O)/C=C/c2ccc(F)cc2)ccc1O` [Compound 5l, 1-(4-Fluorophenyl)-5-hydroxy-7-(4-hydroxy-3-methoxyphenyl)hepta-1,4,6-trien-3-one], the melting point lay in the range of 146 to 147 °C. The IC50 at S. pneumoniae Nan A [2] stood at 1800 ± 200 nM.

`COc1cc(/C=C/C(=O)/C=C(O)/C=C/c2ccccc2)ccc1O` [Compound 5h, 5-Hydroxy-7-(4-hydroxy-3-methoxyphenyl)-1-phenylhepta-1,4,6-trien-3-one] showed a melting point of 135 to 137 °C. In addition, on S. pneumoniae Nan A [2], the IC50 was found to be 7100 ± 100 nM.

For `COc1ccc(/C=C/C(O)=C/C(=O)/C=C/c2ccc(O)c(OC)c2)cc1O` [Compound 5c, 5-Hydroxy-7-(4-hydroxy-3-methoxyphenyl)-1-(3-hydroxy-4-methoxyphenyl)hepta-1,4,6-trien-3-one], the melting point is 137 to 140 °C. In data set [1], this molecule gave an IC50 of 7700 ± 700 nM. Further, at S. pneumoniae Nan A [2], the IC50 is 1000 ± 400 nM.

Regarding `COc1cc(/C=C/C(=O)/C=C(O)/C=C/c2ccc(NC(C)=O)cc2)ccc1O` [Compound 5n, N-(4–(5-Hydroxy-7–(4-hydroxy-3-methoxyphenyl)-3-oxohepta-1,4,6-trien-1-yl)phenyl)acetamide], the melting point was 183 to 185 °C. In data set [1], this molecule had an IC50 of 6800 ± 800 nM. Further, the IC50 on S. pneumoniae Nan A [2] was 1800 ± 400 nM.

For the molecule `COc1cc(/C=C/C(=O)/C=C(O)/C=C/c2ccc([N+](=O)[O-])cc2)ccc1O` [Compound 5j, 5-Hydroxy-7-(4-hydroxy-3-methoxyphenyl)-1-(4-nitrophenyl)hepta-1,4,6-trien-3-one], the melting point fell in the range of 204 to 205 °C. This molecule also showed an IC50 in data set [1] of 6900 ± 1800 nM. On S. pneumoniae Nan A [2], the IC50 worked out at 900 ± 300 nM.

Turning to `COc1cc(/C=C/C(=O)/C=C(O)/C=C/c2ccc(C(F)(F)F)cc2)ccc1O` [Compound 5k, 5-Hydroxy-7-(4-hydroxy-3-methoxyphenyl)-1-(4-(trifluoromethyl)phenyl)hepta-1,4,6-trien-3-one], the melting point was in the range of 158 to 160 °C. For the same molecule, the IC50 on S. pneumoniae Nan A [2] turned out to be 1000 ± 100 nM.

As a reminder, the Ki is the equilibrium dissociation constant of an inhibitor or competing ligand from its target. Take `COc1cc(/C=C/C(=O)/C=C(O)/C=C/c2ccc(O)c(OC)c2)ccc1O` [Compound 4a, curcumin]: at S. pneumoniae Nan A [3], the “Inhibition type against Nan A” value is “noncompetitive inhibition” and the Ki was determined as 1300 nM. Further, the IC50 in data set [1] is 5300 ± 700 nM. In addition, the IC50 on S. pneumoniae Nan A [2] came to 600 ± 100 nM.

Take `COc1cc(/C=C/C(=O)/C=C(O)/C=C/c2ccc(OC(C)=O)c(OC)c2)ccc1OC(C)=O` [Compound 7, 3-Hydroxy-5-oxohepta-1,3,6-triene-1,7-diyl)bis(2-methoxy-4,1-phenylene) diacetate]: the IC50 came out at 37500 ± 3500 nM in data set [1] and 2600 ± 600 nM on S. pneumoniae Nan A [2].

Molecule `COc1cc(/C=C/C(=O)/C=C(O)/C=C/c2ccc(N)cc2)ccc1O` [Compound 5q, 1-(4-Aminophenyl)-5-hydroxy-7-(4-hydroxy-3-methoxyphenyl)hepta-1,4,6-trien-3-one] registered a melting point of 99 to 100 °C. Besides, on S. pneumoniae Nan A [3], the “Inhibition type against Nan A” value is given as “noncompetitive inhibition” and the Ki stood at 800 nM. In data set [1], this molecule showed an IC50 of 2900 ± 900 nM. At S. pneumoniae Nan A [2], the IC50 came out at 1600 ± 100 nM.

In turn, `CCOc1cc(/C=C/C(O)=C/C(=O)/C=C/c2ccc(O)c(OC)c2)ccc1O` [Compound 5f, 1-(3-Ethoxy-4-hydroxyphenyl)-5-hydroxy-7-(4-hydroxy-3-methoxyphenyl)hepta-1,4,6-trien-3-one] registered a melting point of 182 to 183 °C. Also, 6700 ± 600 nM corresponded to half-maximal inhibition in data set [1] (IC50). Also, at S. pneumoniae Nan A [2], the IC50 was 1500 ± 800 nM.

On to `O=C(C=Cc1ccc(O)cc1)C=C(O)C=Cc1ccc(O)cc1` [Compound 4e, 5-Hydroxy-1,7-bis(4-hydroxyphenyl)hepta-1,4,6-trien-3-one], for which the “Inhibition type against Nan A” value on S. pneumoniae Nan A [3] is recorded as “noncompetitive inhibition”. Besides, at S. pneumoniae Nan A [3], the Ki was determined as 1200 nM. In addition, the figures for the IC50 (in data set [1]; at S. pneumoniae Nan A [2]) were 15100 ± 100 nM and 4000 ± 1200 nM, respectively.

Consider `COc1cc(/C=C/C(=O)/C=C(O)/C=C/c2ccc(O)cc2)ccc1O` [Compound 5p, 5-Hydroxy-7-(4-hydroxy-3-methoxyphenyl)-1-(4-hydroxyphenyl)hepta-1,4,6-trien-3-one], for which the IC50 in data set [1] amounted to 4300 ± 700 nM; at S. pneumoniae Nan A [2], 600 ± 200 nM.

With `COc1cc(/C=C/C(=O)/C=C(O)/C=C/c2ccc(N(C)C)cc2)ccc1O` [Compound 5r, 1-(4-(Dimethylamino)phenyl)-5-hydroxy-7-(4-hydroxy-3-methoxyphenyl)hepta-1,4,6-trien-3-one], the IC50 in data set [1] came out at 1900 ± 200 nM; on S. pneumoniae Nan A [2], 1500 ± 200 nM.

Take `COc1cc(C=CC(O)=CC(=O)C=Cc2cccnc2)ccc1O` [Compound 5g, 5-Hydroxy-7-(4-hydroxy-3-methoxyphenyl)-1-(pyridin-3-yl)hepta-1,4,6-trien-3-one]: the melting point was 185 °C (dec.). In data set [1], the IC50 turned out to be 43600 ± 100 nM. The IC50 on S. pneumoniae Nan A [2] stood at 4400 ± 100 nM.

Take `COc1cc(/C=C/C(O)=C/C(=O)/C=C/c2ccc(OC)c(OC)c2)ccc1O` [Compound 5a, 7-(3,4-Dimethoxyphenyl)-5-hydroxy-1-(4-hydroxy-3-methoxyphenyl)hepta-1,4,6-trien-3-one]: the IC50 turned out to be 11700 ± 200 nM in data set [1] and 1500 ± 700 nM on S. pneumoniae Nan A [2].

In the case of `COc1ccc(/C=C/C(=O)/C=C(O)/C=C/c2ccc(OC)c(OC)c2)cc1OC` [Compound 4c, 1,7-Bis(3,4-dimethoxyphenyl)-5-hydroxyhepta-1,4,6-trien-3-one], the IC50 came to 21500 ± 7000 nM in data set [1] and 3400 ± 1000 nM on S. pneumoniae Nan A [2].

`COc1ccc(/C=C/C(=O)/C=C(O)/C=C/c2ccc(O)c(O)c2)cc1O` [Compound 5e, 1-(3,4-Dihydroxyphenyl)-5-hydroxy-7-(3-hydroxy-4-methoxyphenyl)hepta-1,4,6-trien-3-one] showed a melting point of 203 to 204 °C. Further, at S. pneumoniae Nan A [3], the “Inhibition type against Nan A” value is “competitive inhibition” and the Ki is 140 nM. The molecule also displayed an IC50 in data set [1] of 4800 ± 1500 nM. Also, at S. pneumoniae Nan A [2], the IC50 was determined as 200 ± 100 nM. The “fold improvement in Nan A inhibitory activity over curcumin” value at S. pneumoniae Nan A [2] (IC50 ratio versus curcumin (4a)) is 3.0 fold.

`COc1ccc(/C=C/C(O)=C/C(=O)/C=C/c2ccc(OC)c(OC)c2)cc1O` [Compound 5b, 7-(3,4-Dimethoxyphenyl)-5-hydroxy-1-(3-hydroxy-4-methoxyphenyl)hepta-1,4,6-trien-3-one] yielded a melting point of 155 to 158 °C. Also, in data set [1], the IC50 is 9200 ± 200 nM. In addition, the IC50 on S. pneumoniae Nan A [2] was found to be 600 ± 100 nM.

Molecule `COc1ccc(C=CC(=O)C=C(O)C=Cc2ccc(OC)c(O)c2)cc1O` [Compound 4b, 5-Hydroxy-1,7-bis(3-hydroxy-4-methoxyphenyl)hepta-1,4,6-trien-3-one] displayed a melting point of 182 to 183 °C. Also, in data set [1], the IC50 is 7600 ± 500 nM. Also, the IC50 on S. pneumoniae Nan A [2] is 1000 ± 400 nM.
